“Also recorded” adds a separate entry of the source.
Tests used:
[1] = molecular target: T1, inositol monophosphatase (IMPase) (Bos taurus, UniProt P20456); assay: Inhibition of inositol monophosphatase (IMPase) enzyme activity, liberated phosphate by molybdate coloration; format: biochemical, animal; details: 4 mM 2-glycerolphosphate, 5 μg/ml IMPase, 50 mM Tris-HCl pH 7.5, 2 mM magnesium chloride, 0.1 mM EGTA, 30 minutes; read-out: IC50 (molar amount of inhibitor required to inhibit the enzyme activity by 50%)
T1 sequence (P20456 1-277): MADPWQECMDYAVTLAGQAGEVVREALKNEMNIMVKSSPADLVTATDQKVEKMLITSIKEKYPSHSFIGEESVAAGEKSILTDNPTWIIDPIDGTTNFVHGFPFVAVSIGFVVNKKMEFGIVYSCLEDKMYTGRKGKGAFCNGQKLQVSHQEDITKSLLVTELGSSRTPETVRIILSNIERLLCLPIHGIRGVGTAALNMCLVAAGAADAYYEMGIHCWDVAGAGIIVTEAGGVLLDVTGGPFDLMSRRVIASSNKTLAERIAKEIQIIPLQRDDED
From the text: For determining the activity of the compounds of formula I, IMPase with a purity higher than 90% as judged by SDS-PAGE (sodium dodecyl sulphate polyacrylamide gel electrophoresis) is purified as described in P. D. Pelton and A. J. Ganzhorn, Journal Biolog. Chem., 267, 1992, pp. 5916-5920. The enzyme can be purified from animal brain or from recombinant E. coli strains expressing animal IMPase. Although crude enzyme preparations can also be used, it is preferable to use purified enzyme. The purified enzyme routinely has a specific activity of 25 μmol of Pi/min/mg of protein as determined in a standard assay (P. V. Attwood et al., Biochem. Jour., 1988, 253, pp. 387-394) with 4 mM 2-glycerolphosphate as substrate.
The enzyme activity may be determined according to A. J. Ganzhorn and M. C. Chanal, Biochem., 1990, 29; the reaction mixture contains 50 mM Tris-HCl, pH 7.5, 2 mM magnesium chloride and 0.1 mM EGTA. Then, 5 μg/ml of enzyme IMPase and 4 mM of 2-glycerolphosphate substrate are added to the reaction mixture; alternatively, it is also possible to add the substrate directly into the reaction mixture, before adding the enzyme.
The reaction is considered terminated after 30 minutes from the addition of the substrate or the enzyme (depending on which one is added later); the liberated phosphate is determined by molybdate coloration (P. V. Attwood et al., Biochem. Jour., 1988, 253, pp. 387-394) at 350 nm with a Shimadzu spectrophotometer UV 2100.
The enzyme reaction is performed either in the absence or in the presence of various concentrations of the compounds of formula I, to determine the molar amount of inhibitor required to inhibit the enzyme activity by 50% (IC50).

[2] = cited from earlier work
bipolar disorder / mania = details: cited from earlier work
inositol monophosphatase = details: cited from earlier work

Work on `O=C(O)c1cc(O)c(O)c(=O)c(O)c1` [puberulic acid, 3,4,6-trihydroxy-5-oxo-1,3,6-cycloheptatriene-1-carboxylic acid] yielded an IC50 [1] of about 40 µM.

`O=C1OC(=O)c2c1cc(O)c(O)c(O)c2=O` [puberulonic acid, 3,4,6-trihydroxy-5-oxo-1,3,6-cycloheptatriene-1,7-dicarboxylic acid anhydride] showed an IC50 [1] of about 4 µM.

For lithium, the IC50 [1] is given as about 1250 µM, the “structural lesions in kidney” value ([2]; after chronic lithium treatment, especially in patients who have experienced lithium toxicity) is given as “interstitial fibrosis, tubular atrophy and glomerular sclerosis” and the “adverse effects common to lithium therapy” value ([2]; lithium therapy) is given as “tremor, weight gain, diarrhea and skin rash; also recorded: transient leukocytosis; also recorded: can cause patients with a borderline thyroid reserve to become clinically hypothyroid; also recorded: can decompensate cardiac status due to shifts in fluids and electrolytes”. For the same molecule, the “occurrence of polyuria-polydipsia syndrome” value ([2]; lithium treatment) was “up to 60 % of treated patients”, the “time it takes to exert anti-manic effect” value (bipolar disorder / mania; acute bipolar disorder) was 7 to 10 days and the “anti-manic and anti-depressive therapeutic effect” value (bipolar disorder / mania; preferably employed as lithium carbonate) was “alleviating manic symptoms, normalizing the mood of manic patients”. The “inhibition of inositol monophosphatase activity” value (inositol monophosphatase) was “inhibits the activity of said enzyme”.

From patent US5990160A, “Use of tropolone derivatives as inhibitors of the enzyme inositol monophosphatase” (Gruppo Lepetit, SpA, priority 1995, dated 1999)
